Molecules are shown by their SMILES.

For assay [1], the target named is T1, Alpha-2A adrenergic receptor (Homo sapiens) (UniProt P08913).
T1 sequence (whole entry): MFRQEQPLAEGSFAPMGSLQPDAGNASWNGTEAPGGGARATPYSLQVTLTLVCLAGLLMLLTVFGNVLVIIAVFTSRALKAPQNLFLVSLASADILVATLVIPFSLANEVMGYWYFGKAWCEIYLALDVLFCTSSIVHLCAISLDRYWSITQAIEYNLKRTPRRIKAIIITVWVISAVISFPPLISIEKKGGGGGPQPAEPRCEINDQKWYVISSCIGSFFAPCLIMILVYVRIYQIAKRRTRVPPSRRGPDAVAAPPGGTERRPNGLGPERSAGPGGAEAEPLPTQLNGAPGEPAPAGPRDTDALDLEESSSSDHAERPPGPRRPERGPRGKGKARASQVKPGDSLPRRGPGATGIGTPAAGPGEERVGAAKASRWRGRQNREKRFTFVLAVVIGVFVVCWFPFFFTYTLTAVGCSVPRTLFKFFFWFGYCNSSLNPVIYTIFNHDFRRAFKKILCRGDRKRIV
The experiment in a line: ALPHA2A/H Eurofins SafetyScreen44 (BI).

The target of assay [2] is T2, Alpha-2B adrenergic receptor (Homo sapiens) (UniProt P18089).
T2 sequence (whole entry): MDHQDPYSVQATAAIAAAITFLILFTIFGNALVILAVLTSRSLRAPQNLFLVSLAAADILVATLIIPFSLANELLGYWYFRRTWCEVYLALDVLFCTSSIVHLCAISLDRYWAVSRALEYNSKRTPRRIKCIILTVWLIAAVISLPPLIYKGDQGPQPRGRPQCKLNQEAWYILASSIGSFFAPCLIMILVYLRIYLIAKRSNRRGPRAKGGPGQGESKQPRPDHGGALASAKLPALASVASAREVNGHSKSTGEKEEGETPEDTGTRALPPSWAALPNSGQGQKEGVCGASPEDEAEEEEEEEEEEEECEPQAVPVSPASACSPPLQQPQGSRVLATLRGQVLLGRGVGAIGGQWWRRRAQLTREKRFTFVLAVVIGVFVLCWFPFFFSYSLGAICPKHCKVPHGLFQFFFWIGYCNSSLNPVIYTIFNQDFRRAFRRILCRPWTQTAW
The assay is described as follows: ALPHA2B/H Eurofins SafetyScreen44 (BI).

Assay [3] has as its target D(4) dopamine receptor (Homo sapiens) (UniProt P21917). The assay is described as follows: D4.2/H Eurofins SafetyScreen44 (BI). To be noted: Compound concentration 10.0 uM.
The target of assay [4] is T3, 5-hydroxytryptamine receptor 3A (Homo sapiens) (UniProt P46098).
T3 sequence (whole entry): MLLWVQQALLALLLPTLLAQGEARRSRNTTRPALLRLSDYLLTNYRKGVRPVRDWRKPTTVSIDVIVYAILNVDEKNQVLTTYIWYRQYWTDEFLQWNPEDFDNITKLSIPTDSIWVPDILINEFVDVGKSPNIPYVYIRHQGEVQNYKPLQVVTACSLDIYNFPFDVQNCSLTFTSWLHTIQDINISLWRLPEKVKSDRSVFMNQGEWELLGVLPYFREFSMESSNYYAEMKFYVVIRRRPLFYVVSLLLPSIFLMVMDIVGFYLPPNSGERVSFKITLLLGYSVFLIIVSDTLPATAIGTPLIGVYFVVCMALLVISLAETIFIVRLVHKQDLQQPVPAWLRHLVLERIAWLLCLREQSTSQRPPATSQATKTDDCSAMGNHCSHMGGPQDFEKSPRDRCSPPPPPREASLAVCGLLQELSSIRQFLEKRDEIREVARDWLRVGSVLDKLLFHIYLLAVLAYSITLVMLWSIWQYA
The assay is described as follows: 5HT3/HU Eurofins SafetyScreen44 (BI). To be noted: Compound concentration 10.0 uM.

Assay [5] deals with Protein kinase C alpha type (Mus musculus) (UniProt P20444). The assay is described as follows: PHORBOLE/M Eurofins SafetyScreen44 (BI). The following applies: Compound concentration 10.0 uM.
The target in assay [6] is Estrogen receptor (Homo sapiens) (UniProt P03372). The experiment in a line: ERALPHA/H Eurofins SafetyScreen44 (BI). The following applies: Compound concentration 10.0 uM.
Assay [7] addresses Cysteinyl leukotriene receptor 1 (Homo sapiens) (UniProt Q9Y271). The assay is described as follows: CYSLT1_HS Eurofins SafetyScreen44 (BI). To be noted: Compound concentration 10.0 uM.
Assay [8] addresses Gastrin/cholecystokinin type B receptor (Homo sapiens) (UniProt P32239). The assay is described as follows: CCKB/H Eurofins SafetyScreen44 (BI). The following applies: Compound concentration 10.0 uM.
Assay [9] concerns imidazoline I2 receptor (Rattus norvegicus). The assay is described as follows: I2/CENTR/R Eurofins SafetyScreen44 (BI). To be noted: Compound concentration 10.0 uM.
Assay [10] deals with Endothelin receptor type B (Homo sapiens) (UniProt P24530). The experiment in a line: ETB/HUM Eurofins SafetyScreen44 (BI). To be noted: Compound concentration 10.0 uM.
The target in assay [11] is 5-hydroxytryptamine receptor 2B (Homo sapiens) (UniProt P41595). The following applies: Compound concentration 10.0 uM.
Assay [12] addresses Endothelin-1 receptor (Homo sapiens) (UniProt P25101). The experiment in a line: ETA/HU Eurofins SafetyScreen44 (BI). To be noted: Compound concentration 10.0 uM.
In assay [13] the target is T4, 5-hydroxytryptamine receptor 1A (Homo sapiens) (UniProt P08908).
T4 sequence (whole entry): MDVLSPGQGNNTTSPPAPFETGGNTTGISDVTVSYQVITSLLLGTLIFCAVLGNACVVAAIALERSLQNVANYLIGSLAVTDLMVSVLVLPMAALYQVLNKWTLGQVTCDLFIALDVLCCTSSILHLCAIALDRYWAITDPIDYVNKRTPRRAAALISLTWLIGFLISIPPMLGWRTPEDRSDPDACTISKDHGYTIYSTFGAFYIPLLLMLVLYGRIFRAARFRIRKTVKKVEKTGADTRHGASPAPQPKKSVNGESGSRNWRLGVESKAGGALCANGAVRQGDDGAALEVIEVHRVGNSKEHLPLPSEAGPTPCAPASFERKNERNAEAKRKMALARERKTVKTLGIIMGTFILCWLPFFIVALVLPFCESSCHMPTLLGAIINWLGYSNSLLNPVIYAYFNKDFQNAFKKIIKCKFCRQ
The experiment in a line: 5HT1A/HU Eurofins SafetyScreen44 (BI). To be noted: Compound concentration 10.0 uM.

The target in assay [14] is Glucocorticoid receptor (Homo sapiens) (UniProt P04150). The assay is described as follows: GLUCOCORTICO Eurofins SafetyScreen44 (BI). To be noted: Compound concentration 10.0 uM.
Assay [15] addresses Gamma-aminobutyric acid receptor subunit alpha-1 (Rattus norvegicus) (UniProt P62813). The assay is described as follows: BZD/CENTR/R Eurofins SafetyScreen44 (BI). To be noted: Compound concentration 10.0 uM.
For assay [16], the target named is Sodium-dependent noradrenaline transporter (Homo sapiens) (UniProt P23975). The experiment in a line: NEUP/H Eurofins SafetyScreen44 (BI). To be noted: Compound concentration 10.0 uM.
The target of assay [17] is T4, 5-hydroxytryptamine receptor 1A (Homo sapiens). The assay is described as follows: 5HT1A/H Eurofins SafetyScreen44 (BI). To be noted: Compound concentration 10.0 uM.
The target of assay [18] is 5-hydroxytryptamine receptor 2A (Homo sapiens) (UniProt P28223). The assay is described as follows: 5HT2AH_AGON Eurofins SafetyScreen44 (BI). The following applies: filed as agonist, Compound concentration 10.0 uM.
Assay [19] deals with T3, 5-hydroxytryptamine receptor 3A (Homo sapiens). The experiment in a line: 5HT3/H Eurofins SafetyScreen44 (BI). The following applies: Compound concentration 10.0 uM.

Sequence of 5-hydroxytryptamine receptor 2B (Homo sapiens) (P41595 whole entry): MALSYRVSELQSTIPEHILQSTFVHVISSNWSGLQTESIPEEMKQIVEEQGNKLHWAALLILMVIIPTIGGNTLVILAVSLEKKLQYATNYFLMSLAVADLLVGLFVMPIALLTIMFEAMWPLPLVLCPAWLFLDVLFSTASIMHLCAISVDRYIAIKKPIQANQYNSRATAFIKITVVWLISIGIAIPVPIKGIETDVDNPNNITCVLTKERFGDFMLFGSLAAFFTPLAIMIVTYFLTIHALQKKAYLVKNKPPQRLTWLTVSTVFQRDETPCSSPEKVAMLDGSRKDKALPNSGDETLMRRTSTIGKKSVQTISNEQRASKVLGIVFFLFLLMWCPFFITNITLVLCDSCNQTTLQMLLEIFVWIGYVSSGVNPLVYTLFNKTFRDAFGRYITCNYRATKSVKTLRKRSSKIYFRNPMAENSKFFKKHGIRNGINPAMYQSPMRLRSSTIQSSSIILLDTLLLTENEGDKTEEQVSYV
Sequence of Endothelin receptor type B (Homo sapiens) (P24530 whole entry): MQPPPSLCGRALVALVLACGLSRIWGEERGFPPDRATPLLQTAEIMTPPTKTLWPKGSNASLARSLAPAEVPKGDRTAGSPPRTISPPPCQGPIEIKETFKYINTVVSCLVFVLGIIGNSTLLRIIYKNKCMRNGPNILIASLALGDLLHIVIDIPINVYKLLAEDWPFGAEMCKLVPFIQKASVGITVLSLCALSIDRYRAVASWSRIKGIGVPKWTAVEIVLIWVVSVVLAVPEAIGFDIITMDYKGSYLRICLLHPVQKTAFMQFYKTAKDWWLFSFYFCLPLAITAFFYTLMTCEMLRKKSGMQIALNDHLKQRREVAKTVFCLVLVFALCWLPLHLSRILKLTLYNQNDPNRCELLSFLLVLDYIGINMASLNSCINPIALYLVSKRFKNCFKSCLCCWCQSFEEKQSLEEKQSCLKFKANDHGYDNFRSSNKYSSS
Sequence of Sodium-dependent noradrenaline transporter (Homo sapiens) (P23975 whole entry): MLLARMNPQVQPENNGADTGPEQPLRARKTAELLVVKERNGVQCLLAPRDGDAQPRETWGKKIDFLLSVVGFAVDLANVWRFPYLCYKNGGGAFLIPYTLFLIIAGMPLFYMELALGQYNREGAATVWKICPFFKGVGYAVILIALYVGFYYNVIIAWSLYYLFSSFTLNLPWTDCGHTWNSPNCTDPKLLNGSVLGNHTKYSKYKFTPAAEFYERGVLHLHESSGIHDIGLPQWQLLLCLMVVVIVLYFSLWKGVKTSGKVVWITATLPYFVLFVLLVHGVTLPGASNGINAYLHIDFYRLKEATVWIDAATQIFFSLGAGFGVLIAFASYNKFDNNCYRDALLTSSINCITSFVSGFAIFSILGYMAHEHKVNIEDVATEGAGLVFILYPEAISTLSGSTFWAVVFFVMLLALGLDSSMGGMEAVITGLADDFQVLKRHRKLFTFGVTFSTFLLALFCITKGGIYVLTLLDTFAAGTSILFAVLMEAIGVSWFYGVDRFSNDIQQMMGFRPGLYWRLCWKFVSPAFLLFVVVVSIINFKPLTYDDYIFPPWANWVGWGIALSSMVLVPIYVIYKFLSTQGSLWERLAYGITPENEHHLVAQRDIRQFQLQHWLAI
Sequence of Estrogen receptor (Homo sapiens) (P03372 whole entry): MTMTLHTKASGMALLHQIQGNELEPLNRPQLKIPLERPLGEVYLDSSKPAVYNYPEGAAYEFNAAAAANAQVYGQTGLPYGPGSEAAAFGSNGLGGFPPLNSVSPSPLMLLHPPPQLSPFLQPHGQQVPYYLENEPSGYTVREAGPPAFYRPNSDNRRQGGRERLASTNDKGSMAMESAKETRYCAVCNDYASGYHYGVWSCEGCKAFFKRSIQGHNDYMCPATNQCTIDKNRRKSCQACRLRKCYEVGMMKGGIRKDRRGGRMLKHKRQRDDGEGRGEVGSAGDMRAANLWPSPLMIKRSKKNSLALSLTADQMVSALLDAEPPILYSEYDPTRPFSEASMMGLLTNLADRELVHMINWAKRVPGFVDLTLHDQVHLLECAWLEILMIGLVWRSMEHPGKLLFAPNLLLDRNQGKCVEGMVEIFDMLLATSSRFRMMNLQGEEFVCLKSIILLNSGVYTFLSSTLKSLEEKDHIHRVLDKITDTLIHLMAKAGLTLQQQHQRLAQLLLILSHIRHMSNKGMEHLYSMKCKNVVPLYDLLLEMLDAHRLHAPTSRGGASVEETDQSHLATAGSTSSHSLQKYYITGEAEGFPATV
Sequence of Cysteinyl leukotriene receptor 1 (Homo sapiens) (Q9Y271 whole entry): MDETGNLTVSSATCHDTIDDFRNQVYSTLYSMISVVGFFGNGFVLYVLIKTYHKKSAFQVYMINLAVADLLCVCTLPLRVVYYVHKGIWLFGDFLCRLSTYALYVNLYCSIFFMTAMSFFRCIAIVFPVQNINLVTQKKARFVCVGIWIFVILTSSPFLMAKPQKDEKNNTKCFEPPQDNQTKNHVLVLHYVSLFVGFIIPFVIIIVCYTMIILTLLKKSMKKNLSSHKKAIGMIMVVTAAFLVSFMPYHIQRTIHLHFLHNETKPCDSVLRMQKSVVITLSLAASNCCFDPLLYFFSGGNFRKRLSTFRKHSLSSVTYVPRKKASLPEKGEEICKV
Sequence of Gamma-aminobutyric acid receptor subunit alpha-1 (Rattus norvegicus) (P62813 whole entry): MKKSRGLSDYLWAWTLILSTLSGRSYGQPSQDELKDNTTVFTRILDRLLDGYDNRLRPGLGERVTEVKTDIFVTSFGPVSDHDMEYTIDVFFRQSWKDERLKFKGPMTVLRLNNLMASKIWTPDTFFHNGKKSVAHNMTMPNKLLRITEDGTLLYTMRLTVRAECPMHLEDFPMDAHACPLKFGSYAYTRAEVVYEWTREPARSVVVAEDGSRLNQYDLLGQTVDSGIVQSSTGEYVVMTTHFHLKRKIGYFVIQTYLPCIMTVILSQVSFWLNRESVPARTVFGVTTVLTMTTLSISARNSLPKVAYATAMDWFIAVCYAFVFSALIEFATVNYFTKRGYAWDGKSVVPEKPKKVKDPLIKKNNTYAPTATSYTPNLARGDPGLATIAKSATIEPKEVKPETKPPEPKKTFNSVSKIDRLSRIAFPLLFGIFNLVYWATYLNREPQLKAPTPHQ
Sequence of D(4) dopamine receptor (Homo sapiens) (P21917 whole entry): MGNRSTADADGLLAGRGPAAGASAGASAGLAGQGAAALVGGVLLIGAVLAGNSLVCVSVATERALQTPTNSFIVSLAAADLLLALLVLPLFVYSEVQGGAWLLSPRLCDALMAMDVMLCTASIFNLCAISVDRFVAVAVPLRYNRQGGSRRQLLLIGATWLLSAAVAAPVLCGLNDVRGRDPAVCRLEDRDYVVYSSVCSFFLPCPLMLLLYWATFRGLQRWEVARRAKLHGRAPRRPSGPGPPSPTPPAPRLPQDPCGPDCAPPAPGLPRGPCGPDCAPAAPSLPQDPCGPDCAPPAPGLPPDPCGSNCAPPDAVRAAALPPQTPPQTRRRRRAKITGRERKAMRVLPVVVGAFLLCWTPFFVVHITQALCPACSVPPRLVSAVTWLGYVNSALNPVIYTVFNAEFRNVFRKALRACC
Sequence of Endothelin-1 receptor (Homo sapiens) (P25101 whole entry): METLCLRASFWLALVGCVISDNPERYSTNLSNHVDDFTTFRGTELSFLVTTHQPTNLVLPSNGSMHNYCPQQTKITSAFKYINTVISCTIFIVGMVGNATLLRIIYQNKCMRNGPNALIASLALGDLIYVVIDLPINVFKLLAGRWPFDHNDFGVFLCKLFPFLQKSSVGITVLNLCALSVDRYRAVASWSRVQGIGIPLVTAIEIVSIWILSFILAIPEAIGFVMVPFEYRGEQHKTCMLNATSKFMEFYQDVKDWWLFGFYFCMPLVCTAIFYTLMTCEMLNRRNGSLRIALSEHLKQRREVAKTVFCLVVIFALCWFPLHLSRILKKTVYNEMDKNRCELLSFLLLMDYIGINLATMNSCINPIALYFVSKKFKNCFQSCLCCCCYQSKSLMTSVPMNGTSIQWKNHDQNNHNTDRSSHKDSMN
Sequence of Gastrin/cholecystokinin type B receptor (Homo sapiens) (P32239 whole entry): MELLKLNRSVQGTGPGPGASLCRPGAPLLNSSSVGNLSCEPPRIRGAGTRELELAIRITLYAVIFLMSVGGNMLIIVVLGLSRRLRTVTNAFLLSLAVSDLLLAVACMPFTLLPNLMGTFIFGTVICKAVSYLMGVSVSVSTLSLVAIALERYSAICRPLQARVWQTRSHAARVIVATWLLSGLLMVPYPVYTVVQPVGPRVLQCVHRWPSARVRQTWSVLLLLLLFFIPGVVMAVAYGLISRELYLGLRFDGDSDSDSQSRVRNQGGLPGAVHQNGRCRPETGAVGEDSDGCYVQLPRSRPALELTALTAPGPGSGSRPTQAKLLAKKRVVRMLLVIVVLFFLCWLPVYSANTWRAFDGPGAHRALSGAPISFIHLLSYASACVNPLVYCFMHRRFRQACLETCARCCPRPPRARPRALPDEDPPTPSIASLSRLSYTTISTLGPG

Turning to `Cc1cc(OCCC(C)(C)O)cc(C)c1-c1ccc(F)c2c1CC[C@H]2Oc1ccc2c(c1)OC[C@H]2CC(=O)O`, the residual activity in assay [1] (Compound concentration 0.1 uM) was 93%; in [1] (Compound concentration 0.3 uM) it was 90%; in assay [1] (Compound concentration 1.0 uM), 83%; in assay [1] (Compound concentration 3.0 uM), 64%; in assay [1] (Compound concentration 10.0 uM) it was 5.5%; in [2] (Compound concentration 0.3 uM) it was 97%. In addition, the residual activity was 98% in assay [2] (Compound concentration 1.0 uM); 103% in [2] (Compound concentration 3.0 uM); 90% in assay [2] (Compound concentration 10.0 uM); 75% in [2] (Compound concentration 30.0 uM); 99% in assay [3]; 100% in assay [4]. For the same compound, the residual activity in [5] is 84%; in [6] it was 103%; in assay [7], 31%; in [8], 96%; in assay [9] it was 86%; in assay [10] it was 63%. The residual activity is 91% in assay [12], 118% in assay [13] and 67% in assay [14]. In [11], the inhibition is 3.41%.
In the case of `COCCCS(=O)(=O)c1cc(C)c(-c2ccc(F)c3c2CC[C@H]3Oc2ccc3c(c2)OC[C@H]3CC(=O)O)c(C)c1`, the residual activity was 109% in [15]; 83% in assay [16]; 103% in assay [17]; 101% in assay [18]; 106% in [19].

By inhibition is commonly meant the change of the read-out against control, counted positive when it falls.

These data come from ChEMBL document CHEMBL5058643, “Data for DCP probe BI-2081” (2022).
